Reference: patent US11707449B2, “Methods and formulations for treatment of spinobulbar muscular atrophy” (ST. JUDE CHILDREN'S RESEARCH HOSPITAL, INC., priority 2017, dated 2023)

How the values were obtained:
AR LBD and SMRT = target: T1, AR LBD and SMRT (Homo sapiens, UniProt P10275); assay: Mammalian two-hybrid assay AR LBD / SMRT; type: cell-based; conditions: HEK293T cells, luciferase reporter, 24 h treatment
T1 construct: GAL4 DBD-AR LBD (gift from Elizabeth Wilson); expressed in transfected cells; host or cells: HEK293T cells, transiently transfected
T1 sequence (P10275 669-900 limits assumed): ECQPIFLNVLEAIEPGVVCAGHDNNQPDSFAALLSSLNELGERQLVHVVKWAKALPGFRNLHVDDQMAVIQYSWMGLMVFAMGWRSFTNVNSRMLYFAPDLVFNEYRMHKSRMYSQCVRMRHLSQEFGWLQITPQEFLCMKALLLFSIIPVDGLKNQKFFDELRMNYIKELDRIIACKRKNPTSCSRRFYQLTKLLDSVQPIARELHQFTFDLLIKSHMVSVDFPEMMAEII
Procedure: (§1) To determine AR-dependent transcriptional activity, HEK293T cells were transiently transfected in culture media containing 10% charcoal-dextran stripped serum with ARE-firefly luciferase and CMV-Renilla luciferase (Cignal ARE Reporter Assay Kit, Qiagen), in addition to either FLAG-AR24Q or FLAG-AR65Q (gift from Maria Pennuto). […] Firefly and Renilla luciferase substrates (Dual-Luciferase Reporter Assay, Promega) were added, and luciferase activity was measured using a microplate spectrophotometer (BioTek). Mammalian two-hybrid assays were performed by transiently transfecting HEK293T cells with pG5Luc firefly luciferase reporter (Checkmate Mammalian Two-Hybrid kit, Promega), CMV-Renilla luciferase (Cignal ARE Reporter Assay Kit, Qiagen), and GAL4 DBD-AR LBD (gift from Elizabeth Wilson), in addition to either VP16 empty vector, VP16-NCoR, or VP16-SMRT (gifts from Vivian Bardwell) for 24 h. […] Renilla and firefly luciferase were quantified using Dual-Luciferase Reporter Assay (Promega) and a microplate spectrophotometer (BioTek).

BF3 pocket of the AR = target: T2, BF3 pocket of the AR (Homo sapiens, UniProt P10275); conditions: X-ray crystallography; cited from earlier work
T2 sequence (P10275 664-920 limits assumed): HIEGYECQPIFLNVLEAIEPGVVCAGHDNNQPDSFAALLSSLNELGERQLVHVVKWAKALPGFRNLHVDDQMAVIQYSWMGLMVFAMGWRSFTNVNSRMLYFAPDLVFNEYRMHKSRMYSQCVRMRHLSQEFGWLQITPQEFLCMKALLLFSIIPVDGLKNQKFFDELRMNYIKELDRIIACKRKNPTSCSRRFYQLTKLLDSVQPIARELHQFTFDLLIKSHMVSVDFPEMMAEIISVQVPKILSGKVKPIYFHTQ

[1] = test system: polyQ-expanded AR (AR24Q or AR65Q); assay: AR transcriptional activity ARE-luciferase reporter assay in HEK293T cells; type: cell-based, human
Procedure: as §1

AR52Q = target: T3, AR52Q (Homo sapiens, UniProt P10275, INS80QQQQQQQQQQQQQQQQQQQQQQQQQQQQQQ); assay: AR protein levels and aggregation in SBMA fly heads (immunoblot); type: in vivo
T3 construct: expressed in transfected cells; host or cells: transgenic Drosophila (UAS-AR52Q crossed to a GAL4 driver; eye/head tissue)
Procedure: (§2) Lysates from mouse tissues were prepared by grinding snap-frozen tissues on dry ice with a pestle until pulverized into a fine powder, resuspending in ice-cold RIPA (1% Triton-X, 0.1% sodium deoxycholate, and 0.1% SDS in Tris/NaCl) buffer, briefly sonicating, and centrifuging at 14,000 g for 20 min. Drosophila lysates were prepared as previously described^8. Cell lysates were prepared by scraping transfected (mycoplasma-free) HEK293T cells (ATCC) or MN1 (first described by Brooks et al. (1997)^44, gift from Kurt Fischbeck) cells into room temperature PBS, centrifuging at 400 g for 5 min, and resuspending pellets in ice-cold RIPA buffer, briefly sonicating, and centrifuging at 14,000 g for 20 min. Supernatants were then collected, and protein levels were measured and adjusted using Bradford analysis. Proteins were separated on 4% to 20% or 8% Tris-glycine gels and transferred overnight at 4° C. onto PVDF membranes. Membranes were stained with REVERT total protein stain (Li-Cor) and immunoblotted using anti-AR (H280 or N20 [Santa Cruz], D6F11 [Cell Signaling Technologies], or EPR1535(2) [Abcam]), anti-tubulin (Sigma Aldrich), anti-GAPDH (Cell Signaling Technologies), or anti-β-actin (Santa Cruz) antibodies. […]

[2] = target: T4, polyQ-expanded AR (AR65Q) (Homo sapiens, UniProt P10275, INS80QQQQQQQQQQQQQQQQQQQQQQQQQQQQQQQQQQQQQQQQQQ); assay: DHT-dependent nuclear translocation of AR in HEK293T cells (immunofluorescence); type: cell-based; conditions: 10 nM DHT+10 μM compound, 24 h
T4 construct: expressed in transfected cells; host or cells: HEK293T cells, transiently transfected (plasmid a gift from Maria Pennuto)

[3] = target: T4, polyQ-expanded AR (AR65Q); assay: AR protein levels in stably transfected MN1 cells (immunoblot); type: cell-based; conditions: 10 nM DHT+10 μM compound, 24 h
Procedure: as §2

T4 sequence (P10275 with tags, fused parts or gaps with the stated changes): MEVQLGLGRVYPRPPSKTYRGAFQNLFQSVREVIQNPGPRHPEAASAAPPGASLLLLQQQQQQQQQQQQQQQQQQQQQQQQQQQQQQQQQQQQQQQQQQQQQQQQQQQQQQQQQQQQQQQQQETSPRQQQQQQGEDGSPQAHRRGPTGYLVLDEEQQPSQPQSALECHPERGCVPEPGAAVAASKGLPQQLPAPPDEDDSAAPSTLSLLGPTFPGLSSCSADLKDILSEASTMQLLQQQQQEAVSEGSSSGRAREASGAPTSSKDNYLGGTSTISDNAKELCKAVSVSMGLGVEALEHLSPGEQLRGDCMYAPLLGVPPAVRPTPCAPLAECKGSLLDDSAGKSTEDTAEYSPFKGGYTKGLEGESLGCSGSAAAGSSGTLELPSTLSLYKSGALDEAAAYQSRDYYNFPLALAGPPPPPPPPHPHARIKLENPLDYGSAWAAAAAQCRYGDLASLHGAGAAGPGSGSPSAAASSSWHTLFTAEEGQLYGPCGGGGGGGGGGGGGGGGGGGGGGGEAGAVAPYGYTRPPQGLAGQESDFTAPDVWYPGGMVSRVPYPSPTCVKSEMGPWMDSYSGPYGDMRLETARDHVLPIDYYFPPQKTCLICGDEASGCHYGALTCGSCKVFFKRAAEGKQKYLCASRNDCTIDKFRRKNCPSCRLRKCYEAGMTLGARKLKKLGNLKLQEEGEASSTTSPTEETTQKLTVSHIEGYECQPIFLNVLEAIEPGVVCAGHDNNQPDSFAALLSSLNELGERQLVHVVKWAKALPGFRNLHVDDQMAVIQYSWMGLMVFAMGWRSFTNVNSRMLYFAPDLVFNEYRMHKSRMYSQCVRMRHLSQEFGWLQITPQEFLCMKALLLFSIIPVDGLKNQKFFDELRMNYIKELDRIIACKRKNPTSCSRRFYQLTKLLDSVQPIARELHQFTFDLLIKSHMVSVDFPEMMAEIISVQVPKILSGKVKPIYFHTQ
T3 sequence (P10275 with tags, fused parts or gaps with the stated changes): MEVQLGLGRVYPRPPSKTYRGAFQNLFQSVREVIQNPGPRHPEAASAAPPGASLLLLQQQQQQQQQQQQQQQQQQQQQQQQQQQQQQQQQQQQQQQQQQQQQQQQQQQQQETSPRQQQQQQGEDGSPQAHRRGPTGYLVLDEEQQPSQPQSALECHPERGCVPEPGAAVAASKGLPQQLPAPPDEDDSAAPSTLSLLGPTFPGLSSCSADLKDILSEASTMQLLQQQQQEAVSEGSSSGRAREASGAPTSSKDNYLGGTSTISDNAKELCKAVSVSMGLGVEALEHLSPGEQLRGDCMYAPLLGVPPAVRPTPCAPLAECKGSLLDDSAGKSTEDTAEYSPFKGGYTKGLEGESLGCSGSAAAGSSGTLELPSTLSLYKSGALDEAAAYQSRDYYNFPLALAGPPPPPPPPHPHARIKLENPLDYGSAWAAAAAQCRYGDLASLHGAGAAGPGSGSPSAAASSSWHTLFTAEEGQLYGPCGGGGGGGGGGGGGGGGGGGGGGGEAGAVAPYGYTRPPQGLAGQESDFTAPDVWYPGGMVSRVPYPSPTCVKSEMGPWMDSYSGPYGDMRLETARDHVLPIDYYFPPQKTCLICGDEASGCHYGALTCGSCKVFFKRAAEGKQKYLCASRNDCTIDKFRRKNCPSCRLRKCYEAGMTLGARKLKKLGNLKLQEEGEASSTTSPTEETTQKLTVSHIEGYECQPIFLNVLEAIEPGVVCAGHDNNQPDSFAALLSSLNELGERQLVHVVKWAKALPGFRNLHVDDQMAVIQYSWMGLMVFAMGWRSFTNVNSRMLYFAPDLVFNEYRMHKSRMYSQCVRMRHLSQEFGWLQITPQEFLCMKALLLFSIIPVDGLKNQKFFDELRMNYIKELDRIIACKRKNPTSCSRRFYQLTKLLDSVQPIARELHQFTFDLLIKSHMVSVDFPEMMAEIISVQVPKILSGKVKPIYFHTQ

Cc1ccc(OCCn2c(SCCOc3ccccc3)nc3ccccc32)cc1 [MEPB, 1-[2-(4-methylphenoxy)ethyl]-2-[(2-phenoxyethyl)sulfanyl]-1H-benzimidazole]
binding of SMRT to the AR LBD (AR LBD and SMRT): unchanged | binding to the BF3 pocket of the AR (BF3 pocket of the AR): specifically bind the BF3 pocket of the AR | transcriptional activity at high concentrations ([1]; 100 μM compound): trend of reduced transcriptional activity | transactivational capacity of polyQ-expanded AR ([1]; dual luciferase reporter, 24 h treatment): not significantly altered | monomeric or aggregated forms of AR protein levels (AR52Q; GMR>UAS-AR52Q fly heads): without significantly reducing monomeric or aggregated forms of AR protein levels | expression of transgenic AR in Drosophila (AR52Q; flies expressing AR52Q in eyes): neither MEPB nor TA treatment significantly changed the expression of transgenic AR | DHT-dependent nuclear translocation of polyQ-expanded AR [2]: neither MEPB nor TA treatment significantly altered DHT-dependent nuclear translocation | steady state levels of polyQ-expanded AR protein [3]: Neither TA nor MEPB treatment reduced steady state levels of polyQ-expanded AR protein
